BigSolDB 2.1

CC(=O)c1ccc2ccc(C)cc2c1
solubility (mole fraction)
Settings	in n-dodecane	in n-heptane	in n-octane
273.15 K	0.00013	0.000115	0.000114
275.15 K	0.000135	0.000124	–
276.15 K	–	–	0.00013
277.15 K	–	0.000138	–
278.15 K	0.000158	–	–
279.15 K	–	0.000157	0.000152
281.15 K	0.000195	–	0.000172
282.15 K	–	0.000182	–
283.15 K	0.000205	–	–
284.15 K	–	–	0.000194
286.15 K	0.000239	0.000228	–
287.15 K	–	–	0.000231
289.15 K	0.000287	0.000268	0.000254
291.15 K	–	0.000297	–
292.15 K	0.000339	–	0.000291
293.15 K	–	0.000344	–
295.15 K	0.00041	–	0.000343
297.15 K	0.000454	–	0.000387
300.15 K	0.000526	–	–

CC(=O)c1ccc2cc(C)ccc2c1
Settings	solubility (mole fraction)
in n-dodecane, 273.15 K	0.00876
in n-dodecane, 279.65 K	0.0122
in n-dodecane, 283.15 K	0.0146
in n-dodecane, 288.15 K	0.0188
in n-dodecane, 291.15 K	0.022
in n-dodecane, 293.65 K	0.0254
in n-dodecane, 296.65 K	0.0291
in n-dodecane, 299.15 K	0.0339
in n-dodecane, 301.65 K	0.037
in n-dodecane, 305.15 K	0.046
in n-dodecane, 308.15 K	0.0535
in n-dodecane, 311.15 K	0.0683
in n-heptane, 273.15 K	0.00938
in n-heptane, 277.15 K	0.0104
in n-heptane, 279.15 K	0.0114
in n-heptane, 282.15 K	0.013
in n-heptane, 285.15 K	0.0151
in n-heptane, 288.15 K	0.0177
in n-heptane, 291.15 K	0.0217
in n-heptane, 294.15 K	0.0258
in n-heptane, 297.15 K	0.0293
in n-heptane, 299.65 K	0.0345
in n-heptane, 303.15 K	0.0428
in n-heptane, 306.15 K	0.0484
in n-heptane, 309.15 K	0.0566
in n-heptane, 311.15 K	0.0629
in n-heptane, 313.15 K	0.0716
in n-heptane, 316.15 K	0.0852
in n-heptane, 319.15 K	0.105
in n-octane, 273.15 K	0.00895
in n-octane, 277.65 K	0.0105
in n-octane, 283.15 K	0.0139
in n-octane, 287.15 K	0.0172
in n-octane, 291.15 K	0.0211
in n-octane, 293.15 K	0.0239
in n-octane, 297.15 K	0.029
in n-octane, 301.15 K	0.0371
in n-octane, 303.15 K	0.0417
in n-octane, 306.65 K	0.0487
in n-octane, 311.15 K	0.0623
in n-octane, 314.15 K	0.0755
in n-octane, 316.15 K	0.0861
in n-octane, 319.15 K	0.106
